Reference: patent publication US9073881B2, “Benzoic acid derivatives” (HOFFMANN-LA ROCHE INC., priority 2011, dated 2015)

What follows are molecules tested against Human eIF4E (Homo sapiens (Human), UniProt P06730) (assay: Human eIF4E/4G binding assay (time-resolved fluorescence, HH-eIF4E and biotin-labeled 4G2 peptide)). Settings: inhibition of binding of His-tagged human eIF4E (aa 28-217) to biotin-labeled 4G2 peptide.
Experimental: The protein was solubilized with 8 M urea and purified under denaturing conditions using nickel-charged HisTrap HP columns (GE Healthcare). The protein was refolded by diluting to approximately 0.25 mg/mL with 6 M urea, 20 mM Hepes pH 7.0, 500 mM NaCl, 1 mM DTT, 1 mM EDTA, and 0.5 M arginine.HCl, and then dialyzing overnight into the same buffer without the urea. The protein was further dialyzed into 20 mM Hepes pH 6.5, 50 mM NaCl, 1 mM EDTA, and 1 mM DTT, filtered, and then concentrated using Hitrap SP sepharose FF columns (GE Healthcare). The protein was dialyzed into 20 mM Hepes pH 7.0, 500 mM NaCl, 5 mM DTT, and 10% glycerol and stored at −80° C. until use. Test compounds (1.6 mM stock in DMSO) were diluted 3 fold in series in DMSO. Compound solutions were diluted 4 fold in Assay Buffer (50 mM sodium phosphate, pH 6.5, 50 mM KCl, 1 mM DTT and 0.5 mg/mL gammaglobulin). […] The samples were incubated at room temperature for 20 minutes. […] IC50 values were calculated using Condoseo software (Genedata AG).

Human eIF4E, sequence (P06730 28-217): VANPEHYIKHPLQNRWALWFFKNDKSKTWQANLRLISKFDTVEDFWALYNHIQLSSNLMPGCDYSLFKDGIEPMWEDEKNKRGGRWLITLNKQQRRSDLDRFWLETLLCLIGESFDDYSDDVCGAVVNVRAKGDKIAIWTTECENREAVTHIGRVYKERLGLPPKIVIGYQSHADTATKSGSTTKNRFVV

With O=C(O)c1cc(-c2nc(-c3ccc(Cl)c(Cl)c3)cs2)ccc1-c1ccc([N+](=O)[O-])cc1 [Example 45, 4-[4-(3,4-Dichloro-phenyl)-thiazol-2-yl]-4′-nitro-biphenyl-2-carboxylic acid] as the molecule, how does the IC50 read?
The IC50 was 4.1 µM.

With O=C(O)c1cc(-c2nc(-c3ccc(Cl)c(Cl)c3)cs2)ccc1-c1cccc([N+](=O)[O-])c1 [Example 46, 4-[4-(3,4-Dichloro-phenyl)-thiazol-2-yl]-3′-nitro-biphenyl-2-carboxylic acid] as the molecule, how does the IC50 read?
Its IC50 is 3.8 µM.

Which IC50 does the source give for CCN(CC)CCCNC(=O)c1ccc(-c2ccc(-c3nc(-c4ccc(Cl)c(Cl)c4)cs3)cc2C(=O)O)cc1 [Example 47, 4-[4-(3,4-Dichloro-phenyl)-thiazol-2-yl]-4′-(3-diethylamino-propylcarbamoyl)-biphenyl-2-carboxylic acid] here?
Its IC50 is over 80 µM.

With CN(C)CCCNC(=O)c1ccc(-c2ccc(-c3nc(-c4ccc(Cl)c(Cl)c4)cs3)cc2C(=O)O)cc1 [Example 48, 4-[4-(3,4-Dichloro-phenyl)-thiazol-2-yl]-4′-(3-dimethylamino-propylcarbamoyl)-biphenyl-2-carboxylic acid] as the molecule, how does the IC50 read?
The IC50 was over 80 µM.

With CN(C)CCNC(=O)c1ccc(-c2ccc(-c3nc(-c4ccc(Cl)c(Cl)c4)cs3)cc2C(=O)O)cc1 [Example 49, 4-[4-(3,4-Dichloro-phenyl)-thiazol-2-yl]-4′-(2-dimethylamino-ethylcarbamoyl)-biphenyl-2-carboxylic acid] as the molecule, how does the IC50 read?
The IC50 was over 80 µM.

Cn1nccc1CNC(=O)c1ccc(-c2ccc(-c3nc(-c4ccc(Cl)c(Cl)c4)cs3)cc2C(=O)O)cc1 [Example 50, 4-[4-(3,4-Dichloro-phenyl)-thiazol-2-yl]-4′-[(2-methyl-2H-pyrazol-3-ylmethyl)-carbamoyl]-biphenyl-2-carboxylic acid] was tested. Which IC50 did it give?
The IC50 was 7.8 µM.

For CN1CCC(NC(=O)c2ccc(-c3ccc(-c4nc(-c5ccc(Cl)c(Cl)c5)cs4)cc3C(=O)O)cc2)CC1 [Example 51, 4-[4-(3,4-Dichloro-phenyl)-thiazol-2-yl]-4′-(1-methyl-piperidin-4-ylcarbamoyl)-biphenyl-2-carboxylic acid], which IC50 is on record?
Its IC50 is over 80 µM.

How did the IC50 turn out when CC(=O)N1CCC(NC(=O)c2ccc(-c3ccc(-c4nc(-c5ccc(Cl)c(Cl)c5)cs4)cc3C(=O)O)cc2)CC1 [Example 52, 4′-(1-Acetyl-piperidin-4-ylcarbamoyl)-4-[4-(3,4-dichloro-phenyl)-thiazol-2-yl]-biphenyl-2-carboxylic acid] was run?
Its IC50 is 10 µM.

CN1CCN(C(=O)c2ccc(-c3ccc(-c4nc(-c5ccc(Cl)c(Cl)c5)cs4)cc3C(=O)O)cc2)CC1 [Example 53, 4-[4-(3,4-Dichloro-phenyl)-thiazol-2-yl]-4′-(4-methyl-piperazine-1-carbonyl)-biphenyl-2-carboxylic acid] was tested. Which IC50 did it give?
Its IC50 is over 80 µM.

With O=C(O)c1cc(-c2nc(-c3ccc(Cl)c(Cl)c3)cs2)ccc1-c1ccc(C(=O)N2CCCC2)cc1 [Example 57, 4-[4-(3,4-Dichloro-phenyl)-thiazol-2-yl]-4′-(pyrrolidine-1-carbonyl)-biphenyl-2-carboxylic acid] as the molecule, how does the IC50 read?
The IC50 was 4.3 µM.

With O=C(NCCCN1CCOCC1)c1ccc(-c2ccc(-c3nc(-c4ccc(Cl)c(Cl)c4)cs3)cc2C(=O)O)cc1 [Example 58, 4-[4-(3,4-Dichloro-phenyl)-thiazol-2-yl]-4′-(3-morpholin-4-yl-propylcarbamoyl)-biphenyl-2-carboxylic acid] as the molecule, how does the IC50 read?
The IC50 was over 80 µM.

For O=C(NCCN1CCOCC1)c1ccc(-c2ccc(-c3nc(-c4ccc(Cl)c(Cl)c4)cs3)cc2C(=O)O)cc1 [Example 59, 4-[4-(3,4-Dichloro-phenyl)-thiazol-2-yl]-4′-(2-morpholin-4-yl-ethylcarbamoyl)-biphenyl-2-carboxylic acid], which IC50 is on record?
Its IC50 is over 80 µM.

How did the IC50 turn out when O=C(NCC1CCOCC1)c1ccc(-c2ccc(-c3nc(-c4ccc(Cl)c(Cl)c4)cs3)cc2C(=O)O)cc1 [Example 60, 4-[4-(3,4-Dichloro-phenyl)-thiazol-2-yl]-4′-[(tetrahydro-pyran-4-ylmethyl)-carbamoyl]-biphenyl-2-carboxylic acid] was run?
The IC50 was 8.9 µM.

O=C(NCC1CCCO1)c1ccc(-c2ccc(-c3nc(-c4ccc(Cl)c(Cl)c4)cs3)cc2C(=O)O)cc1 (stereo not shown) [Example 61, 4-[4-(3,4-Dichloro-phenyl)-thiazol-2-yl]-4′-[(tetrahydro-furan-2-ylmethyl)-carbamoyl]-biphenyl-2-carboxylic acid] was tested. Which IC50 did it give?
Its IC50 is 5.5 µM.

O=C(NC1CCOC1)c1ccc(-c2ccc(-c3nc(-c4ccc(Cl)c(Cl)c4)cs3)cc2C(=O)O)cc1 (stereo not shown) [Example 62, 4-[4-(3,4-Dichloro-phenyl)-thiazol-2-yl]-4′-(tetrahydro-furan-3-ylcarbamoyl)-biphenyl-2-carboxylic acid] was tested. Which IC50 did it give?
Its IC50 is 7.7 µM.

O=C(NC1CCOCC1)c1ccc(-c2ccc(-c3nc(-c4ccc(Cl)c(Cl)c4)cs3)cc2C(=O)O)cc1 [Example 63, 4-[4-(3,4-Dichloro-phenyl)-thiazol-2-yl]-4′-(tetrahydro-pyran-4-ylcarbamoyl)-biphenyl-2-carboxylic acid] was tested. Which IC50 did it give?
The IC50 was 5.7 µM.

How did the IC50 turn out when COc1ccc(CNC(=O)c2ccc(-c3ccc(-c4nc(-c5ccc(Cl)c(Cl)c5)cs4)cc3C(=O)O)cc2)cc1 [Example 64, 4-[4-(3,4-Dichloro-phenyl)-thiazol-2-yl]-4′-(4-methoxy-benzylcarbamoyl)-biphenyl-2-carboxylic acid] was run?
The IC50 was 2 µM.

With COc1cccc(CNC(=O)c2ccc(-c3ccc(-c4nc(-c5ccc(Cl)c(Cl)c5)cs4)cc3C(=O)O)cc2)c1 [Example 65, 4-[4-(3,4-Dichloro-phenyl)-thiazol-2-yl]-4′-(3-methoxy-benzylcarbamoyl)-biphenyl-2-carboxylic acid] as the molecule, how does the IC50 read?
Its IC50 is 1.3 µM.

With O=C(NCCc1cccnc1)c1ccc(-c2ccc(-c3nc(-c4ccc(Cl)c(Cl)c4)cs3)cc2C(=O)O)cc1 [Example 66, 4-[4-(3,4-Dichloro-phenyl)-thiazol-2-yl]-4′-(2-pyridin-3-yl-ethylcarbamoyl)-biphenyl-2-carboxylic acid] as the molecule, how does the IC50 read?
The IC50 was 9.6 µM.

Which IC50 does the source give for O=C(NCCc1ccccc1)c1ccc(-c2ccc(-c3nc(-c4ccc(Cl)c(Cl)c4)cs3)cc2C(=O)O)cc1 [Example 67, 4-[4-(3,4-Dichloro-phenyl)-thiazol-2-yl]-4′-phenethylcarbamoyl-biphenyl-2-carboxylic acid] here?
Its IC50 is 2.9 µM.

How did the IC50 turn out when O=C(NCc1ccncc1)c1ccc(-c2ccc(-c3nc(-c4ccc(Cl)c(Cl)c4)cs3)cc2C(=O)O)cc1 [Example 69, 4-[4-(3,4-Dichloro-phenyl)-thiazol-2-yl]-4′-[(pyridin-4-ylmethyl)-carbamoyl]-biphenyl-2-carboxylic acid] was run?
The IC50 was 7.1 µM.

Which IC50 does the source give for Cc1cccc(CNC(=O)c2ccc(-c3ccc(-c4nc(-c5ccc(Cl)c(Cl)c5)cs4)cc3C(=O)O)cc2)c1 [Example 70, 4-[4-(3,4-Dichloro-phenyl)-thiazol-2-yl]-4′-(3-methyl-benzylcarbamoyl)-biphenyl-2-carboxylic acid] here?
The IC50 was 1.7 µM.

With O=C(NCc1cccc(C(F)(F)F)c1)c1ccc(-c2ccc(-c3nc(-c4ccc(Cl)c(Cl)c4)cs3)cc2C(=O)O)cc1 [Example 71, 4-[4-(3,4-Dichloro-phenyl)-thiazol-2-yl]-4′-(3-trifluoromethyl-benzylcarbamoyl)-biphenyl-2-carboxylic acid] as the molecule, how does the IC50 read?
The IC50 was 3.2 µM.

Which IC50 does the source give for O=C(NCc1ccc(F)cc1)c1ccc(-c2ccc(-c3nc(-c4ccc(Cl)c(Cl)c4)cs3)cc2C(=O)O)cc1 [Example 72, 4-[4-(3,4-Dichloro-phenyl)-thiazol-2-yl]-4′-(4-fluoro-benzylcarbamoyl)-biphenyl-2-carboxylic acid] here?
The IC50 was 1.5 µM.

O=C(NCc1cccc(F)c1)c1ccc(-c2ccc(-c3nc(-c4ccc(Cl)c(Cl)c4)cs3)cc2C(=O)O)cc1 [Example 73, 4-[4-(3,4-Dichloro-phenyl)-thiazol-2-yl]-4′-(3-fluoro-benzylcarbamoyl)-biphenyl-2-carboxylic acid] was tested. Which IC50 did it give?
The IC50 was 2.1 µM.

With O=C(NCc1ccccc1F)c1ccc(-c2ccc(-c3nc(-c4ccc(Cl)c(Cl)c4)cs3)cc2C(=O)O)cc1 [Example 74, 4-[4-(3,4-Dichloro-phenyl)-thiazol-2-yl]-4′-(2-fluoro-benzylcarbamoyl)-biphenyl-2-carboxylic acid] as the molecule, how does the IC50 read?
The IC50 was 2.5 µM.

With O=C(NCc1cccs1)c1ccc(-c2ccc(-c3nc(-c4ccc(Cl)c(Cl)c4)cs3)cc2C(=O)O)cc1 [Example 75, 4-[4-(3,4-Dichloro-phenyl)-thiazol-2-yl]-4′-[(thiophen-2-ylmethyl)-carbamoyl]-biphenyl-2-carboxylic acid] as the molecule, how does the IC50 read?
The IC50 was 3.1 µM.

How did the IC50 turn out when O=C(NCc1ccccc1)c1ccc(-c2ccc(-c3nc(-c4ccc(Cl)c(Cl)c4)cs3)cc2C(=O)O)cc1 [Example 76, 4′-Benzylcarbamoyl-4-[4-(3,4-dichloro-phenyl)-thiazol-2-yl]-biphenyl-2-carboxylic acid] was run?
The IC50 was 2.3 µM.

Which IC50 does the source give for NC(=O)c1ncccc1-c1ccc(-c2nc(-c3ccc(Cl)c(Cl)c3)cs2)cc1C(=O)O [Example 77, 2-(2-Carbamoyl-pyridin-3-yl)-5-[4-(3,4-dichloro-phenyl)-thiazol-2-yl]-benzoic acid] here?
The IC50 was 1.3 µM.

How did the IC50 turn out when Cc1cc(C(N)=O)ccc1-c1ccc(-c2nc(-c3ccc(Cl)c(Cl)c3)cs2)cc1C(=O)O [Example 78, 4′-Carbamoyl-4-[4-(3,4-dichloro-phenyl)-thiazol-2-yl]-2′-methyl-biphenyl-2-carboxylic acid] was run?
Its IC50 is 1.9 µM.

How did the IC50 turn out when Cc1cc(C(=O)O)ccc1-c1ccc(-c2nc(-c3ccc(Cl)c(Cl)c3)cs2)cc1C(=O)O [Example 79, 4-[4-(3,4-Dichloro-phenyl)-thiazol-2-yl]-2′-methyl-biphenyl-2,4′-dicarboxylic acid] was run?
The IC50 was 5.4 µM.
